Results taken from patent US6403650B1, “Treatment of pulmonary hypertension” (Knoll Pharmaceutical Company, priority 1999, dated 2002).

Assays:
[1] = target: [3H]Noradenaline reuptake; assay: in vitro [3H]noradrenaline reuptake inhibition in rat brain tissue; format: biochemical; details: means of ≧3 separate determinations
[3H]Dopamine reuptake = in vitro [3H]dopamine reuptake inhibition in rat brain tissue; format: biochemical; details: means of ≧3 separate determinations

**Q.** `CC(NC(C)(C)C)C(=O)c1cccc(Cl)c1` (stereo not shown) [Bupropion] was tested. Which Ki [1] did it give?
**A.** 2590 nM

**Q.** What about the Ki ([3H]Dopamine reuptake) of the same compound?
**A.** 409 nM

**Q.** Which results are given for `COc1ccc(C(CN(C)C)C2(O)CCCCC2)cc1` (stereo not shown) [Venlafaxine]?
**A.** Ki [1]: 196 nM; Ki ([3H]Dopamine reuptake): 2590 nM
